# Measured values taken from the supplement of paper PMC10307832.
# Key:
# Experiment in all cases: relative viability (nuclei count vs DMSO), 5 days (fraction); higher = more cells survive
# Kobe2602 + Decitabine = compound: C1=CC(=CC=C1NC(=S)NNC2=C(C=C(C=C2[N+](=O)[O-])C(F)(F)F)[N+](=O)[O-])F [Kobe2602] + Nc1ncn([C@H]2C[C@H](O)[C@@H](CO)O2)c(=O)n1 [Decitabine] (partner 2 µM)
# Method in brief: (§1)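 Lung cancer cell lines were pin-tool dosed in 1536-well plates on the day after seeding, with either a lone drug or a fixed anchor-drug dose plus five library-drug doses (not always all listed) in √10 steps. Nuclei were counted on 4× images after 5 days. Relative viability is the ratio of treated-well to vehicle-well nuclei counts, with each value a median of duplicate plates.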
# Kobe2602 + AZD7762 = compound: C1=CC(=CC=C1NC(=S)NNC2=C(C=C(C=C2[N+](=O)[O-])C(F)(F)F)[N+](=O)[O-])F [Kobe2602] + NC(=O)Nc1cc(-c2cccc(F)c2)sc1C(=O)N[C@H]1CCCNC1 [AZD7762] (partner 0.2 µM)
# Method in brief: as §1
# Kobe2602 + Pemetrexed = compound: C1=CC(=CC=C1NC(=S)NNC2=C(C=C(C=C2[N+](=O)[O-])C(F)(F)F)[N+](=O)[O-])F [Kobe2602] + Nc1nc2[nH]cc(CCc3ccc(C(=O)N[C@@H](CCC(=O)O)C(=O)O)cc3)c2c(=O)[nH]1 [Pemetrexed] (partner 0.2 µM)
# Method in brief: as §1
# Zosuquidar + Trametinib = compound: O[C@@H](COc1cccc2ncccc12)CN1CCN([C@@H]2c3ccccc3[C@@H]3[C@H](c4ccccc42)C3(F)F)CC1 [Zosuquidar] + CC(=O)Nc1cccc(-n2c(=O)n(C3CC3)c(=O)c3c(Nc4ccc(I)cc4F)n(C)c(=O)c(C)c32)c1 [Trametinib] (partner 0.02 µM)
# Method in brief: as §1
Cell Line,relative viability (Kobe2602 + Decitabine; first compound 0.2 µM),relative viability (Kobe2602 + Decitabine; first compound 0.6325 µM),relative viability (Kobe2602 + Decitabine; first compound 2 µM),relative viability (Kobe2602 + Decitabine; first compound 6.325 µM),relative viability (Kobe2602 + Decitabine; first compound 20 µM),relative viability (Kobe2602 + AZD7762; first compound 0.2 µM),relative viability (Kobe2602 + AZD7762; first compound 0.6325 µM),relative viability (Kobe2602 + AZD7762; first compound 2 µM),relative viability (Kobe2602 + AZD7762; first compound 6.325 µM),relative viability (Kobe2602 + AZD7762; first compound 20 µM),relative viability (Kobe2602 + Pemetrexed; first compound 0.2 µM),relative viability (Kobe2602 + Pemetrexed; first compound 0.6325 µM),relative viability (Kobe2602 + Pemetrexed; first compound 2 µM),relative viability (Kobe2602 + Pemetrexed; first compound 6.325 µM),relative viability (Kobe2602 + Pemetrexed; first compound 20 µM),relative viability (Zosuquidar + Trametinib; first compound 0.01 µM),relative viability (Zosuquidar + Trametinib; first compound 0.03162 µM),relative viability (Zosuquidar + Trametinib; first compound 0.1 µM),relative viability (Zosuquidar + Trametinib; first compound 0.3162 µM),relative viability (Zosuquidar + Trametinib; first compound 1 µM)
LXF-289,0.387,0.432,0.386,0.381,0.378,1.06,1.08,1.08,1.06,1.08,0.871,0.896,0.88,0.861,0.896,0.614,0.703,0.675,0.727,0.654
NCI-H23,0.2,0.345,0.316,0.304,0.39,0.332,0.312,0.217,0.197,0.182,0.653,0.8,0.82,0.584,0.742,0.363,,0.411,0.441,0.402
NCI-H322M,0.707,0.72,0.693,0.741,0.718,0.604,0.52,0.474,0.72,0.587,0.63,0.646,0.605,0.652,0.631,0.52,0.586,0.555,0.54,0.427
NCI-H358,0.222,0.219,0.225,0.177,0.244,0.608,0.486,0.522,0.618,0.552,0.196,0.208,0.17,0.166,0.178,0.133,0.132,0.155,0.125,0.125
NCI-H441,0.224,0.258,0.224,0.232,0.27,1.1,1.11,1.13,1.13,1.06,0.285,0.217,0.244,0.279,0.288,0.417,0.464,0.345,0.557,0.437
NCI-H460,,0.486,0.525,0.472,0.454,0.64,0.756,0.681,0.652,0.56,,0.0647,0.0722,0.0653,0.0677,0.13,0.142,0.157,0.239,0.0685
NCI-H522,0.693,0.654,0.649,0.642,0.756,1.02,1.14,0.855,0.954,0.859,1.06,1.19,0.974,1.15,1.01,0.81,0.706,0.843,0.723,0.719
NCI-H596,1.03,1.03,1.07,1.12,1.23,1.13,0.978,1.03,0.87,1.02,0.541,0.523,0.568,0.505,0.495,0.762,1,0.857,0.776,0.79
NCI-H647,0.438,0.399,0.332,0.4,0.399,0.681,0.645,0.423,0.532,0.454,0.178,0.22,0.174,0.172,0.184,0.444,0.457,0.419,0.549,0.484
NCI-H650,0.313,0.304,0.32,0.289,0.376,0.843,1.14,0.924,0.971,1.06,0.816,1.04,0.867,1.05,0.889,1.22,0.957,1,0.969,1.08
NCI-H838,0.474,0.478,0.46,0.472,0.527,0.918,1.01,0.874,0.915,0.898,0.257,0.251,0.261,0.246,0.232,0.561,0.465,0.487,0.617,0.509
NCI-H1355,0.312,0.368,0.301,0.346,0.358,0.744,0.7,0.744,0.676,0.815,1.06,1.07,0.992,0.983,0.968,0.461,0.416,0.435,0.557,0.401
NCI-H1395,0.764,0.752,0.712,0.687,0.68,0.35,0.428,0.406,0.422,0.406,1.04,1.01,0.931,0.967,0.843,1.05,1.01,,1.05,1.07
NCI-H1437,0.578,0.495,0.611,0.559,0.491,1.17,1.14,1.11,1.05,1.02,0.303,0.317,0.313,0.298,0.295,0.508,0.587,0.507,0.762,0.533
NCI-H1648,0.657,0.489,0.402,0.533,0.509,0.741,0.656,0.586,0.624,0.66,0.759,0.684,0.519,0.693,0.809,0.479,0.454,0.465,0.469,0.408
NCI-H1651,0.588,0.481,0.71,0.578,0.936,0.442,0.447,0.462,0.41,0.429,0.526,0.51,0.569,0.573,0.731,0.773,0.803,0.772,0.864,0.789
NCI-H1666,0.725,0.693,0.69,0.724,0.812,0.804,0.804,0.903,0.812,0.891,0.81,0.861,1.01,0.934,0.861,0.833,1.03,0.859,0.954,0.811
NCI-H1734,0.49,0.539,0.497,0.48,0.481,0.554,0.656,0.586,0.549,0.503,0.445,0.419,0.422,0.418,0.398,0.591,0.773,0.658,0.734,0.623
NCI-H1755,0.711,0.692,0.738,0.698,0.764,0.416,0.446,0.642,0.407,0.544,0.514,0.419,0.447,0.391,0.398,0.762,0.75,0.755,0.819,0.75
NCI-H1792,0.489,0.512,0.461,0.472,0.526,0.553,0.792,0.593,0.578,0.769,0.679,0.964,0.714,0.887,0.814,0.522,0.427,0.41,0.535,0.421
NCI-H1793,0.482,0.485,0.656,0.664,0.472,0.654,0.352,0.641,0.287,0.539,0.732,1.04,0.781,0.903,0.875,0.423,,,0.445,0.434
NCI-H1915,0.247,0.263,0.256,0.265,0.269,0.711,0.729,0.7,0.71,0.682,0.489,0.498,0.458,0.503,0.45,0.296,0.284,0.297,0.321,0.301
NCI-H1944,0.502,0.452,0.46,0.439,0.48,0.561,0.553,0.704,0.496,0.585,0.632,0.658,0.738,0.626,0.62,0.418,0.393,0.389,0.429,0.388
NCI-H1975,0.402,0.427,0.419,0.379,0.4,0.724,0.791,0.658,0.645,0.662,0.271,0.306,0.265,0.294,0.286,0.431,0.351,0.299,0.528,0.337
NCI-H1993,0.598,0.583,0.537,0.535,0.593,0.812,0.847,0.611,0.698,0.688,0.561,0.589,0.461,0.531,0.587,0.483,0.5,,0.591,0.508
NCI-H2085,0.549,0.549,0.568,0.552,0.616,0.931,1.01,0.986,0.87,0.943,0.944,0.882,0.959,0.904,0.901,0.513,0.481,,0.617,0.548
NCI-H2087,0.313,0.271,0.27,0.281,0.309,1.24,1.22,1.22,1.32,1.13,0.649,0.653,0.584,0.698,0.649,0.188,0.192,0.167,0.224,0.196
